Legend:
[1] = test system: Staphylococcus Aureus ATCC 25923; assay: Colourimetric enzymatic assays in loaded capillaries; format: cell-based; settings: overnight at 37° C.; substrate per capillary from Table 4, 500 mg/mL; yellow = positive reaction
Experimental: (§1) An experiment was conducted to test a combination of sugar fermentation and enzymatic assays for the specific identification of bacteria. Individual 200 micron internal diameter capillaries coated with cross-linked HMW PVA were individually loaded with different reagents to perform a combination of colourimetric sugar fermentation and enzymatic assays as shown in Table 4. [table] […] Staphylococcus Epidermidis ATCC 12228 or Staphylococcus Saprophyticus ATCC 15305 resuspended in Microbatch Staph 12 S suspending media. The strips were incubated overnight at 37° C., and positive/negative identification of assays on individual capillaries was performed by imaging the strips with CCD camera. Enzyme detection: enzymatic substrates are normally colourless. If bacteria have the targeted enzymes, the substrates will be hydrolysed, releasing compounds that will produce a yellow colour indicating a positive reaction.

[2] = test system: Staphylococcus Saprophyticus ATCC 15305; assay: as above; format: cell-based; settings: overnight at 37° C.; substrate per capillary from Table 4, 500 mg/mL; yellow = positive reaction
Experimental: as §1

[3] = test system: Staphylococcus Epidermidis ATCC 12228; assay: as above; format: cell-based; settings: overnight at 37° C.; substrate per capillary from Table 4, 500 mg/mL; yellow = positive reaction
Experimental: as §1

[4] = test system: Staphylococcus Aureus ATCC 25923; assay: Colourimetric fermentation assays in loaded capillaries; format: cell-based; settings: overnight at 37° C.; reagent per capillary from Table 4; orange to yellow = fermentation, orange to purple = arginine/urea degradation
Experimental: (§2) An experiment was conducted to test a combination of sugar fermentation and enzymatic assays for the specific identification of bacteria. Individual 200 micron internal diameter capillaries coated with cross-linked HMW PVA were individually loaded with different reagents to perform a combination of colourimetric sugar fermentation and enzymatic assays as shown in Table 4. [table] […] Staphylococcus Epidermidis ATCC 12228 or Staphylococcus Saprophyticus ATCC 15305 resuspended in Microbatch Staph 12 S suspending media. The strips were incubated overnight at 37° C., and positive/negative identification of assays on individual capillaries was performed by imaging the strips with CCD camera. Sugar Fermentation: if a sugar is fermented, bacteria will produce acid end products and the pH of the medium will drop. The media contains a pH indicator to indicate acid production. A positive test for sugar fermentation consists of a colour change from orange to yellow, indicating a pH change to acidic. Arginine and Urea degradation (detection of Arginine dihydrolase/Urease): when arginine or urea are present, the pH of the medium rises. Accordingly, a positive test for detection of arginine dihydrolase or urease consists of a colour change from orange to purple indicating a pH change to alkaline.

[5] = test system: Staphylococcus Epidermidis ATCC 12228; assay: as above; format: cell-based; settings: overnight at 37° C.; reagent per capillary from Table 4; orange to yellow = fermentation, orange to purple = arginine/urea degradation
Experimental: as §2

[6] = test system: Staphylococcus Saprophyticus ATCC 15305; assay: as above; format: cell-based; settings: overnight at 37° C.; reagent per capillary from Table 4; orange to yellow = fermentation, orange to purple = arginine/urea degradation
Experimental: as §2

[7] = ONPG released into water from loaded cross-linked PVA coated strips, enzymatic endpoint analysis at 420 nm; format: physicochemical; settings: 1 hour, 60 mm strips
Experimental: Reagent loading and release from the hydrophilic layer was quantified using a fluorescent dye and colorimetric enzyme substrates. For this purpose, an FEP microcapillary film was coated with cross-linked PVA and loaded with two assay reagents, the enzymatic substrate ortho-nitrophenyl-β-galactoside (ONPG) which produces a yellow colour in the presence of beta-galactosidase, and the fluorescent dye fluorescein. Loading was performed by incubation with a water or dimethylformamide (DMF)-based reagent solution for between 5 minutes and 2 h, and subsequent removal of the loading solution using a syringe, followed by air drying of the capillaries by repeated aspiration of air through the film using a syringe. Following loading of the capillaries, the amount of reagent loaded was quantified using three different methods.
The water taken up was then removed using a syringe and ONPG concentration measured by enzymatic endpoint analysis in a microwell plate well through the addition of an excess of beta-galactosidase enzyme and monitoring absorbance at 420 nm using a microwell plate reader. Released concentrations were determined by comparison of absorbance with a calibration curve of known concentrations of ONPG.

[8] = ONPG loaded in strips, determined by dipping into beta-galactosidase solution, absorbance at 420 nm; format: physicochemical; settings: loaded 5 minutes with 150 mg/ml in DMF; cross-linked PVA; 1 hour with beta-galactosidase 0.2 U/μL
Experimental: Secondly, the concentration of loaded ONPG was determined inside the capillary film by dipping an FEP microcapillary film coated with cross-linked PVA, and loaded for 5 minutes with 150 mg/ml ONPG dissolved in DMF, into aqueous solutions of beta-galactosidase enzyme (at 0.2 U/μL). The solution was drawn up into test strips, and incubated for 1 hour to allow complete enzymatic conversion of the loaded ONPG. Subsequently, solution was removed from MCF test strips using a syringe and absorbance read using a microplate reader at 420 nm, and absorbance compared to a calibration curve of known concentrations of enzymatically converted ONPG.

[9] = ONPG released into water from strips with different hydrophilic coatings; format: physicochemical; settings: loaded 150 g/L, 5 minute
Experimental: The polymer solutions were then removed from the microcapillary film and the film dried by repeatedly aspirating air through the film strip using a syringe. An FEP microcapillary film coated with cross-linked PVA was used as a control. 8 cm lengths of each polymer coated film were then loaded with ONPG reagent by dipping the film into a 150 g/L ONPG solution. After a 5 minute incubation, the ONPG solution was removed and capillaries were dried using a syringe. The test films were then dipped into water, and the amount of ONPG reagent released into the water measured by a colorimetric endpoint determination using beta-galactosidase enzyme. With the cross-linked PVA coated test strips, 7.8 mg/ml ONPG was released, with gelatine coated test strips 7.2 mg/ml ONPG was released, and with HPMC coated test strips 21.5 mg/ml ONPG was released.

[10] = test system: E. coli (ATCC accession number: 25922); assay: ONPG loaded test strips dipped into bacterial culture, yellow colour; format: cell-based; settings: IPTG-cultured (1 mM, 3 hours); 1 hour incubation at 37 degrees C
Experimental: (§3) A 10 bore FEP microcapillary film was internally coated with cross-linked PVA. Test microcapillary film was prepared by first loading the capillaries with ONPG by filling the capillaries with a 150 mg·mL^−1 ONPG substrate solution in DMF and incubating for 5 minutes. The substrate solution was then removed and the microcapillary film air dried using a syringe to pass air repeatedly through the capillaries. Seven test strips were cut from this ONPG loaded microcapillary film and dipped into one of 7 different aqueous samples. These comprised water (1); sterile Luria-Bertani lysogeny broth (LB) media (2); a 0.1 U/μl solution of β-galactosidase enzyme (3); an overnight culture of E. coli (ATCC accession number: 25922) suspended in LB (4); an overnight culture of Salmonella typhimurium (strain SL3261) suspended in LB (5); an overnight culture of E. coli suspended in a phosphate buffer saline PBS (6); an overnight culture of S. typhimurium suspended in PBS (7). Negative control test strips consisting of PVA coated cross-linked PVA but not loaded with ONPG were dipped into the same samples (referred hereafter as no substrate). As a comparison, similar assays were also performed in 96 well-plates with ONPG substrate solution (final concentration 1 mg·ml^−1) added to the different samples in a final volume of 100 μl. […]

[11] = test system: Salmonella typhimurium (strain SL3261); assay: as above; format: cell-based; settings: IPTG-cultured (1 mM, 3 hours); 1 hour incubation at 37 degrees C
Experimental: as §3

[12] = test system: E. coli (ATCC accession number: 25922); assay: ONPG assay in 96 well-plates (comparison); format: cell-based; settings: ONPG 1 mg/ml, overnight incubation
Experimental: (§4) A 10 bore FEP microcapillary film was internally coated with cross-linked PVA. Test microcapillary film was prepared by first loading the capillaries with ONPG by filling the capillaries with a 150 mg·mL^−1 ONPG substrate solution in DMF and incubating for 5 minutes. The substrate solution was then removed and the microcapillary film air dried using a syringe to pass air repeatedly through the capillaries. Seven test strips were cut from this ONPG loaded microcapillary film and dipped into one of 7 different aqueous samples. These comprised water (1); sterile Luria-Bertani lysogeny broth (LB) media (2); a 0.1 U/μl solution of β-galactosidase enzyme (3); an overnight culture of E. coli (ATCC accession number: 25922) suspended in LB (4); an overnight culture of Salmonella typhimurium (strain SL3261) suspended in LB (5); an overnight culture of E. coli suspended in a phosphate buffer saline PBS (6); an overnight culture of S. typhimurium suspended in PBS (7). Negative control test strips consisting of PVA coated cross-linked PVA but not loaded with ONPG were dipped into the same samples (referred hereafter as no substrate). As a comparison, similar assays were also performed in 96 well-plates with ONPG substrate solution (final concentration 1 mg·ml^−1) added to the different samples in a final volume of 100 μl.

[13] = test system: Salmonella typhimurium (strain SL3261); assay: ONPG assay in 96 well-plates (comparison); format: cell-based; settings: ONPG 1 mg/ml, overnight incubation
Experimental: as §4

E. coli = assay: Sugar fermentation in sugar loaded test strips with Phenol Red Broth; format: cell-based; settings: sugar loaded from 1 g/L solution; 1 h at 37 degrees C; yellow = reduction in pH
Experimental: (§5) The ability of bacteria to ferment specific sugars is also frequently used to distinguish similar species of bacteria. For example, E. coli are able to ferment lactose and glucose and produce acid when they are incubated in the presence of either of these sugars.
(§6) A 10 bore FEP microcapillary film was internally coated with cross-linked PVA. Test microcapillary film was prepared by first loading the capillaries with either glucose or lactose by filling the capillaries with a 1 g/L solution in water and incubating for 5 minutes. The sugar solutions were then removed and the microcapillary film air dried using a syringe to pass air repeatedly through the capillaries. Three test strips were cut from each of the glucose or lactose loaded microcapillary film and dipped into one of 3 different aqueous samples. The first sample was a control sample that contained no bacteria. The second sample contained a suspension of E. coli. The third sample contained a suspension of Salmonella typhimurium. All three aqueous samples also contained Phenol Red Broth (Casein peptone 1 g/L; NaCl 0.5 g/L; Phenol Red 1 g/L). The samples all started out with a pH of 7 and were bright red in colour. When dipped, each aqueous sample was rapidly drawn up into the test strips, and the microcapillaries were clearly bright red in colour due to the Phenol Red indicator dye in the sample. […]

Salmonella typhimurium = assay: as above; format: cell-based; settings: sugar loaded from 1 g/L solution; 1 h at 37 degrees C; yellow = reduction in pH
Experimental: as §5, §6

## O=[N+]([O-])c1ccc(OP(=O)(O)O)cc1 [4-Nitrophenyl phosphate]
[1]
  colour, enzymatic assays: Y

## O=[N+]([O-])c1ccc(O[C@@H]2O[C@H](CO)[C@H](O)[C@H](O)[C@H]2O)cc1 [4-Nitrophenyl β-D-galacto-pyranoside]
[2]
  colour, enzymatic assays: Y

## O=C(O)[C@H]1O[C@@H](Oc2ccc([N+](=O)[O-])cc2)[C@H](O)[C@@H](O)[C@@H]1O [4-Nitrophenyl β-D-glucuronide]
[1]
  colour, enzymatic assays: Y
[3]
  colour, enzymatic assays: Y

## N=C(N)NCCC[C@H](N)C(=O)O [Arginine]
[4]
  colour, fermentation assays: O/P

## OC[C@H]1O[C@H](O[C@H]2[C@H](O)[C@@H](O)[C@H](O)O[C@@H]2CO)[C@H](O)[C@@H](O)[C@@H]1O [Maltose]
[4]
  colour, fermentation assays: Y
[5]
  colour, fermentation assays: Y
[6]
  colour, fermentation assays: Y

## OC[C@@H](O)[C@@H](O)[C@H](O)[C@H](O)CO [Mannitol]
[4]
  colour, fermentation assays: Y
[6]
  colour, fermentation assays: Y

## CC(=O)N[C@H]1C(O)O[C@H](CO)[C@@H](O)[C@@H]1O (stereo partly drawn) [N-Acetyl Glucosamine]
[4]
  colour, fermentation assays: Y

## O=[N+]([O-])c1ccccc1O[C@@H]1O[C@H](CO)[C@H](O)[C@H](O)[C@H]1O [ONPG, ortho-nitrophenyl-β-galactoside]
[7]; Loading concentration 0.5 mg/ml In Water
  Released Concentration: 0.07 mg/mL
[7]; Loading concentration 1.0 mg/ml In Water
  Released Concentration: 0.01 mg/mL
[7]; Loading concentration 5.0 mg/ml In Water
  Released Concentration: 0.06 mg/mL
[7]; Loading concentration 150.0 mg/ml In DMF
  Released Concentration: 4.67 mg/mL
[8]
  average concentration loaded within test strips: 3.4 mg/mL
[9]; HPMC coated test strips
  ONPG released: 21.5 mg/mL
[9]; cross-linked PVA coated test strips
  ONPG released: 7.8 mg/mL
[9]; gelatine coated test strips
  ONPG released: 7.2 mg/mL
[10]
  colour of ONPG-loaded test strips: a yellow colour was observed
[11]
  colour of ONPG-loaded test strips: no yellow colour was observed
[12]
  colour of wells: turned yellow
[13]
  colour of wells: E. coli but not S. typhimurium suspensions turned yellow

## OC[C@H]1O[C@@](CO)(O[C@H]2O[C@H](CO)[C@@H](O)[C@H](O)[C@H]2O)[C@@H](O)[C@@H]1O [Sucrose]
[4]
  colour, fermentation assays: Y
[5]
  colour, fermentation assays: Y
[6]
  colour, fermentation assays: Y

## OC[C@H]1O[C@H](O[C@H]2O[C@H](CO)[C@@H](O)[C@H](O)[C@H]2O)[C@H](O)[C@@H](O)[C@@H]1O [Trehalose]
[4]
  colour, fermentation assays: Y
[6]
  colour, fermentation assays: Y

## OC[C@H]1O[C@@H](O[C@H]2[C@H](O)[C@@H](O)C(O)O[C@@H]2CO)[C@H](O)[C@@H](O)[C@H]1O (stereo partly drawn) [lactose]
E. coli
  colour of sugar loaded test strips (Phenol Red): turned yellow
Salmonella typhimurium
  colour of sugar loaded test strips (Phenol Red): remained bright red

— patent publication US20180021773A1, “ASSAY DEVICES, METHODS FOR CARRYING OUT ASSAYS, ASSAY KITS AND METHOD FOR MANUFACTURING ASSAY DEVICES” (Loughborough University, priority 2014, published 2018)
